Assay results: patent publication US20260325515A1, “TREATMENT OF CANINE CANCERS” (OneHealthCompany, Inc., priority 2023, published 2026)

Tests used:
Assay type in all cases: in vivo, canine (dogs)
[1] = tested on: oral malignant melanoma carrying BRCA1/2 mutations; experiment: Survival of dogs with oral malignant melanoma carrying BRCA1/2 mutations treated with Olaparib; settings: oral malignant melanoma with BRCA1/2 mutations, vs 235 days for other biomarker profiles and alternative drugs, P=0.0120
Anal Sac carcinoma = experiment: Survival of dogs with anal sac carcinoma with Olaparib; settings: 85 without Olaparib
Source text: A significant survival benefit in dogs with anal sac carcinoma treated with Olaparib was observed. Dogs receiving Olaparib achieved a median survival of 422 days compared to 273 days in untreated cases, with a hazard ratio of 0.319 and a statistically significant p-value of 0.023 (Table 2).

[2] = tested on: soft tissue sarcomas with TP53 mutations; experiment: Real-world clinico-genomic analysis, soft tissue sarcomas with TP53 mutations
Description: (§1) Briefly, real-world clinico-genomic data from 3000 dogs were analyzed.

BRCA1-mutated cases = experiment: Real-world clinico-genomic analysis, BRCA1-mutated cases; settings: Olaparib, P=0.004
Description: as §1

Osteosarcoma = experiment: Survival of dogs with osteosarcoma treated with Olaparib (Cox proportional-hazards model)
Source text: (§2) A Cox proportional-hazards model was used to fit survival time. The model estimates the risk of death at a given time, h(t|X)=h(t)*exp(X1β1+ . . . +Xpβp), where h represents the risk of death at time t, and X represents p covariates. Additionally, the ratio of the hazard rates in the treatment group versus the control group is represented as the hazard ratio.
(§3) A one-hot encoded feature for each targeted therapy (treatment) received by the dog was created. For example, if a dog receives multiple treatments, the encoding for each treatment would be a “1,” otherwise, a treatment is encoded as “0”. Similarly, gene mutations were one-hot encoded and treated as independent variables during the analyses. Tumor types were grouped into broad categories to preserve sample size and include them as one-hot encoded features.
(§4) Each dog's survival time and status were determined based on their last known update, which was reported by the veterinarian's office. A dog is only considered deceased if there is a reported date of death, and is only considered to have survived up until the last known update. Two survival intervals were computed: survival from time of diagnosis and survival from time of treatment. When reporting hazard ratios regardless of intervention, survival time is defined as survival from time of diagnosis, which is the time from diagnosis to last known update if the dog is still active, and the time from diagnosis to death if the dog is deceased. When reporting hazard ratios for specific treatments, survival time is defined as survival from treatment. The first date of any targeted therapy being ordered is used as the start of the treatment date.
(§5) Demographic features, including weight in kilograms, sex, and reproductive status (neutered or spayed vs intact), were extracted and used as covariates in the Cox model. In addition, to control for each dog's baseline survival rates, the dog's age at diagnosis, as well as the time from diagnosis to treatment are included, which is computed by […].

[3] = tested on: TP53 mutant osteosarcomas; experiment: Real-world clinico-genomic analysis, TP53 mutant osteosarcomas; settings: Olaparib, P<0.001
Description: as §1

[4] = tested on: TP53-mutated canine tumors; experiment: Real-world clinico-genomic analysis, TP53-mutated canine tumors
Description: as §1

Melanoma = experiment: Survival of dogs with melanoma treated with Palbociclib (Cox proportional-hazards model)
Source text: as §2, §3, §4, §5

[5] = tested on: RB1-mutated canine tumors; experiment: Real-world clinico-genomic analysis, RB1-mutated canine tumors; settings: Rapamycin, P=0.024
Description: as §1

carcinoma = experiment: Survival of dogs with carcinoma with Toceranib; settings: 65 without Toceranib
Source text: Dogs receiving Toceranib achieved a median survival of 419 days compared to 250 days in untreated cases, with a hazard ratio of 0.292 and a statistically significant p-value of 0.003 (Table 3).

Squamous cell carcinoma = experiment: Survival of dogs with squamous cell carcinoma treated with Toceranib (Cox proportional-hazards model)
Source text: as §2, §3, §4, §5

## O=C(c1cc(Cc2n[nH]c(=O)c3ccccc23)ccc1F)N1CCN(C(=O)C2CC2)CC1 [Olaparib]
[1]
  median survival: 448 days
Anal Sac carcinoma; 13 dogs with, without Olaparib 372 days (Table 2) / 273 days
  Median Survival With Olaparib: 422 days
Anal Sac carcinoma; 95% CI (0.119-0.855), p-value 0.023, 13 dogs with
  Hazard Ratio: 0.319
[2]; Olaparib, P=0.011
  OS HR: 0.07
BRCA1-mutated cases
  OS HR: 0.39
Osteosarcoma; dogs, 16 patients with treatment, 154 d (158) without treatment
  Median survival (#patients) with treatment: Inf (16)
Osteosarcoma; dogs, treatment vs control, P = 0.021
  Hazard Ratio (Signal Efficacy): 0.181
Osteosarcoma; vs. 154 days without treatment
  median survival: no death observed
[3]
  OS HR: 0.11
[4]; TP53-mutated cases, Olaparib, P<0.001
  OS HR: 0.34

## CC(=O)c1c(C)c2cnc(Nc3ccc(N4CCNCC4)cn3)nc2n(C2CCCC2)c1=O [Palbociclib]
Melanoma; dogs, 13 patients with treatment, 159 d (114) without treatment
  Median survival (#patients) with treatment: 433 d (13)
Melanoma; dogs, treatment vs control, P = 0.043
  Hazard Ratio (Signal Efficacy): 0.273
Melanoma; vs. 159 days without treatment
  median survival: 433 days

## CO[C@H]1C[C@@H]2CC[C@@H](C)[C@@](O)(O2)C(=O)C(=O)N2CCCC[C@H]2C(=O)O[C@H]([C@H](C)C[C@@H]2CC[C@@H](O)[C@H](OC)C2)CC(=O)[C@H](C)/C=C(\C)[C@@H](O)[C@@H](OC)C(=O)[C@H](C)C[C@H](C)/C=C/C=C/C=C/1C [Rapamycin]
[5]
  OS HR: 0.32
[2]; Rapamycin, P=0.012
  OS HR: 0.11
[4]; TP53-mutated canine tumors, Rapamycin, P=0.028
  OS HR: 0.73

## Cc1[nH]c(/C=C2\C(=O)Nc3ccc(F)cc32)c(C)c1C(=O)NCCN1CCCC1 [Toceranib]
carcinoma; 26 dogs with, without Toceranib 250 days
  Median Survival With Toceranib: 419 days
carcinoma; 95% CI printed (1.31-0.65), p-value 0.003, 26 dogs with
  Hazard Ratio: 0.292
Squamous cell carcinoma; dogs, 13 patients with treatment, 183 d (32) without treatment
  Median survival (#patients) with treatment: 577 d (13)
Squamous cell carcinoma; dogs, treatment vs control, P = 0.005
  Hazard Ratio (Signal Efficacy): 0.072
Squamous cell carcinoma; vs. 183 days without treatment
  median survival: 577 days
